Measured values from ChEMBL document CHEMBL6083262, “Stereorandomized Oncocins with Preserved Ribosome Binding and Antibacterial Activity” (J Med Chem, 2024).
Active and inactive are the calls of the source. The calls are words filed in the database; no cut-off is given here. Non-standard residues stand in square brackets, D forms with d. Residues, ends and D or L forms follow the SMILES beside them. ξ: configuration not given here. ξY = NC(Cc1ccc(O)cc1)C(=O)O; ξR = N=C(N)NCCCC(N)C(=O)O; ξN = NC(=O)CC(N)C(=O)O; Nleu = CC(C)CNCC(=O)O; ξI = CCC(C)C(N)C(=O)O; Nlys = NCCCCNCC(=O)O; ξP = O=C(O)C1CCCN1

Assays:
[1] = Hemolytic activity in human RBC incubated for 4 hrs; format: toxicity, cell-based; conditions: erythrocyte
Pseudomonas aeruginosa [2] = assay: Antimicrobial activity against Pseudomonas aeruginosa PAO1 incubated for 16 to 20 hrs in full muller hinton medium by broth microdilution method; format: functional; conditions: time 16-20 hrs
Staphylococcus aureus [3] = assay: Antimicrobial activity against methicillin-resistant Staphylococcus aureus COL incubated for 16 to 20 hrs in full muller hinton medium by broth microdilution method; format: functional; conditions: time 16-20 hrs
rRNA = assay: Binding affinity to [gamma32 P-ATP] labeled Escherichia coli MG1655 23S ribosomal RNA (5-CCCTTGGGACCTACTTC-3') at U2506 position assessed as increase in band intensity at 1 uM incubated for 2.5 hrs in full muller hinton medium by CMCT based gel electrophoresis; format: nucleic-acid assay
Staphylococcus aureus [4] = assay: Antimicrobial activity against methicillin-resistant Staphylococcus aureus COL incubated for 16 to 20 hrs in 12.5 % muller hinton medium by broth microdilution method; format: functional; conditions: time 16-20 hrs
Acinetobacter baumannii = assay: Antimicrobial activity against Acinetobacter baumannii ATCC 19606 incubated for 16 to 20 hrs in full muller hinton medium by broth microdilution method; format: functional; conditions: time 16-20 hrs
Klebsiella pneumoniae = assay: Antimicrobial activity against Klebsiella pneumoniae NCTC 418 incubated for 16 to 20 hrs in full muller hinton medium by broth microdilution method; format: functional; conditions: time 16-20 hrs
Pseudomonas aeruginosa [5] = assay: Antimicrobial activity against Pseudomonas aeruginosa PAO1 incubated for 16 to 20 hrs in 12.5 % muller hinton medium by broth microdilution method; format: functional; conditions: time 16-20 hrs

CC(C)C[C@H](NC(=O)CN(CC(C)C)C(=O)[C@H](CC(C)C)NC(=O)CN(CCCCN)C(=O)[C@H](CC(C)C)NC(=O)CN(CC(C)C)C(=O)[C@H](CCCCN)NC(=O)CN(CC(C)C)C(=O)[C@H](CC(C)C)NC(=O)CN(CCCCN)C(=O)[C@@H](N)CCCCN)C(N)=O (H-K[Nlys]L[Nleu]K[Nleu]L[Nlys]L[Nleu]L-NH2)
MHC [1]: > 2000 µg/mL

CC[C@H](C)[C@H](NC(=O)[C@H](CCCNC(=N)N)NC(=O)[C@H](CCCNC(=N)N)NC(=O)[C@@H]1CCCN1C(=O)[C@H]1CCCN1C(=O)[C@H](CCCNC(=N)N)NC(=O)[C@@H]1CCCN1C(=O)[C@H](CCCNC(=N)N)NC(=O)[C@@H]1CCCN1C(=O)[C@H](CC(C)C)NC(=O)[C@H](Cc1ccc(O)cc1)NC(=O)[C@@H]1CCCN1C(=O)[C@@H]1CCCN1C(=O)[C@H](CCCCN)NC(=O)[C@H](CC(=O)O)NC(=O)[C@@H](N)C(C)C)C(=O)N[C@@H](Cc1ccc(O)cc1)C(=O)N[C@@H](CC(N)=O)C(=O)N[C@@H](CCCNC(=N)N)C(N)=O (H-VDKPPYLPRPR[dP]PRRIYNR-NH2)
MIC (Pseudomonas aeruginosa [2]): > 64 µg/mL
MIC (Staphylococcus aureus [3]): > 64 µg/mL
MHC [1]: > 1000 µg/mL

CC[C@@H](C)[C@@H](NC(=O)[C@@H](CCCNC(=N)N)NC(=O)[C@@H](CCCNC(=N)N)NC(=O)[C@H]1CCCN1C(=O)[C@H]1CCCN1C(=O)[C@H](CCCNC(=N)N)NC(=O)[C@@H]1CCCN1C(=O)[C@H](CCCNC(=N)N)NC(=O)[C@@H]1CCCN1C(=O)[C@H](CC(C)C)NC(=O)[C@H](Cc1ccc(O)cc1)NC(=O)[C@@H]1CCCN1C(=O)[C@@H]1CCCN1C(=O)[C@H](CCCCN)NC(=O)[C@H](CC(=O)O)NC(=O)[C@@H](N)C(C)C)C(=O)N[C@H](Cc1ccc(O)cc1)C(=O)N[C@H](CC(N)=O)C(=O)N[C@H](CCCNC(=N)N)C(N)=O (H-VDKPPYLPRPR[dP][dP][dR][dR][dI][dY][dN][dR]-NH2)
MIC (Pseudomonas aeruginosa [2]): > 64 µg/mL
MIC (Staphylococcus aureus [3]): > 64 µg/mL
MHC [1]: > 1000 µg/mL
Activity (rRNA): Active

CC[C@H](C)[C@H](NC(=O)[C@H](CCCNC(=N)N)NC(=O)[C@H](CCCNC(=N)N)NC(=O)[C@@H]1CCCN1C(=O)[C@@H]1CCCN1C(=O)[C@@H](CCCNC(=N)N)NC(=O)[C@@H]1CCCN1C(=O)[C@H](CCCNC(=N)N)NC(=O)[C@@H]1CCCN1C(=O)[C@H](CC(C)C)NC(=O)[C@H](Cc1ccc(O)cc1)NC(=O)[C@@H]1CCCN1C(=O)[C@@H]1CCCN1C(=O)[C@H](CCCCN)NC(=O)[C@H](CC(=O)O)NC(=O)[C@@H](N)C(C)C)C(=O)N[C@@H](Cc1ccc(O)cc1)C(=O)N[C@@H](CC(N)=O)C(=O)N[C@@H](CCCNC(=N)N)C(N)=O (H-VDKPPYLPRP[dR]PPRRIYNR-NH2)
MIC (Pseudomonas aeruginosa [2]): > 64 µg/mL
MIC (Staphylococcus aureus [3]): > 64 µg/mL
MIC (Staphylococcus aureus [4]): > 64 µg/mL
MHC [1]: > 1000 µg/mL

CC[C@@H](C)[C@@H](NC(=O)[C@@H](CCCNC(=N)N)NC(=O)[C@@H](CCCNC(=N)N)NC(=O)[C@H]1CCCN1C(=O)[C@H]1CCCN1C(=O)[C@@H](CCCNC(=N)N)NC(=O)[C@@H]1CCCN1C(=O)[C@H](CCCNC(=N)N)NC(=O)[C@@H]1CCCN1C(=O)[C@H](CC(C)C)NC(=O)[C@H](Cc1ccc(O)cc1)NC(=O)[C@@H]1CCCN1C(=O)[C@@H]1CCCN1C(=O)[C@H](CCCCN)NC(=O)[C@H](CC(=O)O)NC(=O)[C@@H](N)C(C)C)C(=O)N[C@H](Cc1ccc(O)cc1)C(=O)N[C@H](CC(N)=O)C(=O)N[C@H](CCCNC(=N)N)C(N)=O (H-VDKPPYLPRP[dR][dP][dP][dR][dR][dI][dY][dN][dR]-NH2)
MIC (Staphylococcus aureus [3]): > 64 µg/mL
MIC (Staphylococcus aureus [4]): > 64 µg/mL
MHC [1]: > 1000 µg/mL
Activity (rRNA): Active

CC[C@H](C)[C@H](NC(=O)[C@H](CCCNC(=N)N)NC(=O)[C@H](CCCNC(=N)N)NC(=O)[C@@H]1CCCN1C(=O)[C@@H]1CCCN1C(=O)[C@H](CCCNC(=N)N)NC(=O)[C@H]1CCCN1C(=O)[C@H](CCCNC(=N)N)NC(=O)[C@@H]1CCCN1C(=O)[C@H](CC(C)C)NC(=O)[C@H](Cc1ccc(O)cc1)NC(=O)[C@@H]1CCCN1C(=O)[C@@H]1CCCN1C(=O)[C@H](CCCCN)NC(=O)[C@H](CC(=O)O)NC(=O)[C@@H](N)C(C)C)C(=O)N[C@@H](Cc1ccc(O)cc1)C(=O)N[C@@H](CC(N)=O)C(=O)N[C@@H](CCCNC(=N)N)C(N)=O (H-VDKPPYLPR[dP]RPPRRIYNR-NH2)
MIC (Pseudomonas aeruginosa [2]): > 64 µg/mL
MIC (Staphylococcus aureus [3]): > 64 µg/mL
MIC (Staphylococcus aureus [4]): > 64 µg/mL
MHC [1]: > 1000 µg/mL

CCC(C)C(NC(=O)C(CCCNC(=N)N)NC(=O)C(CCCNC(=N)N)NC(=O)C1CCCN1C(=O)C1CCCN1C(=O)C(CCCNC(=N)N)NC(=O)C1CCCN1C(=O)[C@H](CCCNC(=N)N)NC(=O)[C@@H]1CCCN1C(=O)[C@H](CC(C)C)NC(=O)[C@H](Cc1ccc(O)cc1)NC(=O)[C@@H]1CCCN1C(=O)[C@@H]1CCCN1C(=O)[C@H](CCCCN)NC(=O)[C@H](CC(=O)O)NC(=O)[C@@H](N)C(C)C)C(=O)NC(Cc1ccc(O)cc1)C(=O)NC(CC(N)=O)C(=O)NC(CCCNC(=N)N)C(N)=O (stereo partly specified) (H-VDKPPYLPR[ξP][ξR][ξP][ξP][ξR][ξR][ξI][ξY][ξN][ξR]-NH2)
MIC (Staphylococcus aureus [3]): > 64 µg/mL
MHC [1]: > 1000 µg/mL

CC[C@H](C)[C@H](NC(=O)[C@H](CCCNC(=N)N)NC(=O)[C@H](CCCNC(=N)N)NC(=O)[C@@H]1CCCN1C(=O)[C@@H]1CCCN1C(=O)[C@H](CCCNC(=N)N)NC(=O)[C@@H]1CCCN1C(=O)[C@@H](CCCNC(=N)N)NC(=O)[C@@H]1CCCN1C(=O)[C@H](CC(C)C)NC(=O)[C@H](Cc1ccc(O)cc1)NC(=O)[C@@H]1CCCN1C(=O)[C@@H]1CCCN1C(=O)[C@H](CCCCN)NC(=O)[C@H](CC(=O)O)NC(=O)[C@@H](N)C(C)C)C(=O)N[C@@H](Cc1ccc(O)cc1)C(=O)N[C@@H](CC(N)=O)C(=O)N[C@@H](CCCNC(=N)N)C(N)=O (H-VDKPPYLP[dR]PRPPRRIYNR-NH2)
MIC (Pseudomonas aeruginosa [2]): > 64 µg/mL
MIC (Acinetobacter baumannii): > 64 µg/mL
MIC (Staphylococcus aureus [3]): > 64 µg/mL
MIC (Staphylococcus aureus [4]): > 64 µg/mL
MHC [1]: > 1000 µg/mL

CCC(C)C(NC(=O)C(CCCNC(=N)N)NC(=O)C(CCCNC(=N)N)NC(=O)C1CCCN1C(=O)C1CCCN1C(=O)C(CCCNC(=N)N)NC(=O)C1CCCN1C(=O)C(CCCNC(=N)N)NC(=O)[C@@H]1CCCN1C(=O)[C@H](CC(C)C)NC(=O)[C@H](Cc1ccc(O)cc1)NC(=O)[C@@H]1CCCN1C(=O)[C@@H]1CCCN1C(=O)[C@H](CCCCN)NC(=O)[C@H](CC(=O)O)NC(=O)[C@@H](N)C(C)C)C(=O)NC(Cc1ccc(O)cc1)C(=O)NC(CC(N)=O)C(=O)NC(CCCNC(=N)N)C(N)=O (stereo partly specified) (H-VDKPPYLP[ξR][ξP][ξR][ξP][ξP][ξR][ξR][ξI][ξY][ξN][ξR]-NH2)
MIC (Pseudomonas aeruginosa [2]): > 64 µg/mL
MIC (Staphylococcus aureus [3]): > 64 µg/mL
MHC [1]: > 1000 µg/mL

CC[C@H](C)[C@H](NC(=O)[C@H](CCCNC(=N)N)NC(=O)[C@H](CCCNC(=N)N)NC(=O)[C@@H]1CCCN1C(=O)[C@@H]1CCCN1C(=O)[C@H](CCCNC(=N)N)NC(=O)[C@@H]1CCCN1C(=O)[C@H](CCCNC(=N)N)NC(=O)[C@H]1CCCN1C(=O)[C@H](CC(C)C)NC(=O)[C@H](Cc1ccc(O)cc1)NC(=O)[C@@H]1CCCN1C(=O)[C@@H]1CCCN1C(=O)[C@H](CCCCN)NC(=O)[C@H](CC(=O)O)NC(=O)[C@@H](N)C(C)C)C(=O)N[C@@H](Cc1ccc(O)cc1)C(=O)N[C@@H](CC(N)=O)C(=O)N[C@@H](CCCNC(=N)N)C(N)=O (H-VDKPPYL[dP]RPRPPRRIYNR-NH2)
MIC (Klebsiella pneumoniae): > 64 µg/mL
MIC (Pseudomonas aeruginosa [2]): > 64 µg/mL
MIC (Acinetobacter baumannii): > 64 µg/mL
MIC (Staphylococcus aureus [3]): > 64 µg/mL
MHC [1]: > 1000 µg/mL

CCC(C)C(NC(=O)C(CCCNC(=N)N)NC(=O)C(CCCNC(=N)N)NC(=O)C1CCCN1C(=O)C1CCCN1C(=O)C(CCCNC(=N)N)NC(=O)C1CCCN1C(=O)C(CCCNC(=N)N)NC(=O)C1CCCN1C(=O)[C@H](CC(C)C)NC(=O)[C@H](Cc1ccc(O)cc1)NC(=O)[C@@H]1CCCN1C(=O)[C@@H]1CCCN1C(=O)[C@H](CCCCN)NC(=O)[C@H](CC(=O)O)NC(=O)[C@@H](N)C(C)C)C(=O)NC(Cc1ccc(O)cc1)C(=O)NC(CC(N)=O)C(=O)NC(CCCNC(=N)N)C(N)=O (stereo partly specified) (H-VDKPPYL[ξP][ξR][ξP][ξR][ξP][ξP][ξR][ξR][ξI][ξY][ξN][ξR]-NH2)
MIC (Pseudomonas aeruginosa [2]): > 64 µg/mL
MIC (Staphylococcus aureus [3]): > 64 µg/mL
MHC [1]: > 1000 µg/mL

CC[C@H](C)[C@H](NC(=O)[C@H](CCCNC(=N)N)NC(=O)[C@H](CCCNC(=N)N)NC(=O)[C@@H]1CCCN1C(=O)[C@@H]1CCCN1C(=O)[C@H](CCCNC(=N)N)NC(=O)[C@@H]1CCCN1C(=O)[C@H](CCCNC(=N)N)NC(=O)[C@@H]1CCCN1C(=O)[C@H](CC(C)C)NC(=O)[C@@H](Cc1ccc(O)cc1)NC(=O)[C@@H]1CCCN1C(=O)[C@@H]1CCCN1C(=O)[C@H](CCCCN)NC(=O)[C@H](CC(=O)O)NC(=O)[C@@H](N)C(C)C)C(=O)N[C@@H](Cc1ccc(O)cc1)C(=O)N[C@@H](CC(N)=O)C(=O)N[C@@H](CCCNC(=N)N)C(N)=O (H-VDKPP[dY]LPRPRPPRRIYNR-NH2)
MIC (Pseudomonas aeruginosa [2]): > 64 µg/mL
MIC (Acinetobacter baumannii): > 64 µg/mL
MIC (Staphylococcus aureus [3]): > 64 µg/mL
MHC [1]: > 1000 µg/mL

CC[C@H](C)[C@H](NC(=O)[C@H](CCCNC(=N)N)NC(=O)[C@H](CCCNC(=N)N)NC(=O)[C@@H]1CCCN1C(=O)[C@@H]1CCCN1C(=O)[C@H](CCCNC(=N)N)NC(=O)[C@@H]1CCCN1C(=O)[C@H](CCCNC(=N)N)NC(=O)[C@@H]1CCCN1C(=O)[C@H](CC(C)C)NC(=O)[C@H](Cc1ccc(O)cc1)NC(=O)[C@@H]1CCCN1C(=O)[C@H]1CCCN1C(=O)[C@H](CCCCN)NC(=O)[C@H](CC(=O)O)NC(=O)[C@@H](N)C(C)C)C(=O)N[C@@H](Cc1ccc(O)cc1)C(=O)N[C@@H](CC(N)=O)C(=O)N[C@@H](CCCNC(=N)N)C(N)=O (H-VDK[dP]PYLPRPRPPRRIYNR-NH2)
MIC (Pseudomonas aeruginosa [2]): > 64 µg/mL
MIC (Staphylococcus aureus [3]): > 64 µg/mL
MIC (Pseudomonas aeruginosa [5]): > 16 µg/mL
MHC [1]: > 1000 µg/mL
